Assay results from US8247603B2, “Deuterated catecholamine derivatives and medicaments comprising said compounds” (Birds Pharma GmbH Berolina Innovative, priority 2006, dated 2012).

Legend:
[1] = test system: dopamine output in the striatum; experiment: Striatal dopamine output measured by microdialysis; format: in vivo, Male Wistar rats; conditions: for Increase of dopamine in the striatum compared to L-DOPA (comparison of AUC0-t): 50 mg/kg i.p., relative to L-DOPA; for Increase of dopamine in the striatum compared to L-DOPA (comparison of AUC0-t) / Baseline corrected dopamine output in the striatum, AUC0-t: Male Wistar rats; for Baseline corrected dopamine output in the striatum, AUC0-t: 50 mg/kg intraperitoneal, 10 mg/kg Carbidopa i.p. 30 min before, microdialysis in dorsolateral striatum
Method: The striatal output of dopamine was measured in Male Wistar rats following intraperitoneal administration of 50 mg/kg L-2-Amino-3-(3,4-dihydroxyphenyl) propionic acid (L-DOPA), L-2-Amino-2,3,3-trideutero-3-(3,4-dihydroxyphenyl) propionic acid (WO-A 2004/056724, Example 6) and L-2-Amino-2,3-dideutero-3-(3,4-dihydroxyphenyl) propionic acid (Example 6), respectively. Male wistar rats (BK Universal, Sollentuna, Sweden) weighing about 300 g at the time of experiment were anaesthetized with a cocktail containing fentanyl citrate (0.39 mg/kg) and fluanisone (12.5 mg/kg, Hypnorm®, Janssen-Cilag) and midazolam (6.25 mg/kg, Dormicum®, Roche) diluted in distilled water (1:1:2; 5 ml/kg i.p.) and mounted in a stereotaxic frame. Dialysis probes were implanted in the dorsolateral striatum (AP: +0.6: ML+3.0: DV −6.2 relative to bregma and the dural surface according to the atlas of Paxinos and Watson (1998)). Dialysis occurs through a semipermeable membrane (Filtral AN69, Hospal Industrie, France) with an active surface length of 3.5 mm. Dialysis experiments were conducted approximately 48 h after surgery in freely moving rats. The rats received 30 min before administration of test items 10 mg/kg Carbidopa, (i.p.). The dialysis probe was perfused with a physiological perfusion solution (Apoteksbolaget, Sweden) at a rate of […] set by a microinfusion pump (Harvard Apparatus, Holliston, Mass.). Dialysate was collected over 15 min intervals and automatically injected into a high performance liquid chromatography (HPLC) system. On-line quantification of dopamine in the dialysate was accomplished by electro-chemical detection (ESA, Chelmsford, Mass.). The location of microdialysis probes was verified in slices of formalin-fixed tissue stained with neutral red. The baseline corrected concentrations (fmol/min) were plotted over the time.

[2] = test system: striatal output of norepinephrine; experiment: Striatal output of norepinephrine; format: in vivo; conditions: compared to L-DOPA
[3] = Therapeutic equivalence during continuous intravenous infusion; format: in vivo
Excerpt: The optimal infusion rate for L-DOPA methyl ester was 2.7 times that required for L-DOPA (Stocchi et al. 1992, Movement Disorders, 7: 249-256).

dopamine in the striatum = conditions: male Wistar rats; known from WO-A 2004/056724; cited from earlier work
[4] = test system: Parkinson's disease exhibiting severe on-off phenomena; conditions: continuous intravenous infusion, patients with Parkinson's disease with severe on-off phenomena; cited from earlier work
[5] = given orally or intraperitoneally, on a molar basis; cited from earlier work
[6] = cited from earlier work

[2H][C@@H](c1ccc(O)c(O)c1)[C@]([2H])(N)C(=O)O [Example 6, L-2-Amino-2,3(S)-dideutero-3-(3,4-dihydroxyphenyl) propionic acid]
Increase of dopamine in the striatum compared to L-DOPA (comparison of AUC0-t) [1]: threefold higher | Increase of dopamine in the striatum compared to L-2-Amino-2,3,3-trideutero-3-(3,4-dihydroxyphenyl) propionic acid ([1]; Example 15 and Table 1): significantly more | Baseline corrected dopamine output in the striatum, AUC0-t [1]: 685 fmol/min*min | Striatal output / formation of norepinephrine [2]: does not block the formation of norepinephrine

[2H][C@@H](c1ccc(O)c(O)c1)[C@]([2H])(N)C(=O)OC [Example 7, L-2-Amino-2,3(S)-dideutero-3-(3,4-dihydroxyphenyl)methyl propionate]
Therapeutic equivalence to L-2-Amino-2,3-dideutero-3-(3,4-dihydroxyphenyl) propionic acid [3]: therapeutically equivalent

[2H]C([2H])(c1ccc(O)c(O)c1)[C@]([2H])(N)C(=O)O [L-2-Amino-2,3,3-trideutero-3-(3,4-dihydroxyphenyl) propionic acid]
Increase of dopamine in the striatum compared to L-DOPA (comparison of AUC0-t) [1]: about twice as high | Baseline corrected dopamine output in the striatum, AUC0-t [1]: 533 fmol/min*min | Striatal output / formation of norepinephrine [2]: reduces the striatal output of norepinephrine | Increase of dopamine in the striatum compared to non-deuterated L-DOPA (dopamine in the striatum): significantly more

N[C@@H](Cc1ccc(O)c(O)c1)C(=O)O [L-2-Amino-3-(3,4-dihydroxyphenyl) propionic acid]
Baseline corrected dopamine output in the striatum, AUC0-t [1]: 228 fmol/min*min

COC(=O)[C@@H](N)Cc1ccc(O)c(O)c1 [L-DOPA methyl ester]
Optimal infusion rate relative to that required for L-DOPA [4]: 2.7 times | Equivalence to L-DOPA in animal experiments [5]: equivalent on a molar basis to L-DOPA | Solubility [6]: highly soluble
